Test results as given in PubChem BioAssay AID248 (DTP/NCI, 2004).
“And” between values parts separate entries of the source, which are not always exact repeats. Identical values can stand only once. Toxic doses and inconclusive results are not listed. Rule as the data show it: active = T/C of 150% or more; inactive = T/C below 125%.

System: L1210 leukemia ip in BDF1 mice, survival T/C
Assay: NCI In Vivo Anticancer Drug Screen. Data for tumor model L1210 Leukemia (intraperitoneal) in B6D2F1 (BDF1) mice
Conditions: endpoint: mean survival time, higher = longer survival
In short: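 Transplanted-tumor mice were given test agent; controls received vehicle only. Survival readings from the two groups were divided (treated over control).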

[1] = dose: 75.0 mg/kg/injection, schedule: Q01DX001 (ip), vehicle: carboxymethylcellulose (CMC)
[2] = dose: 100.0 mg/kg/injection, schedule: Q01DX001 (ip), vehicle: saline with Tween-80
[3] = dose: 200.0 mg/kg/injection, schedule: Q01DX001 (ip), vehicle: saline with Tween-80
[4] = dose: 200.0 mg/kg/injection, schedule: Q01DX001 (ip), vehicle: saline
[5] = dose: 400.0 mg/kg/injection, schedule: Q01DX001 (ip), vehicle: saline
[6] = dose: 100.0 mg/kg/injection, schedule: Q04DX003 (ip), vehicle: saline with Tween-80
[7] = dose: 200.0 mg/kg/injection, schedule: Q04DX003 (ip), vehicle: saline with Tween-80
[8] = dose: 400.0 mg/kg/injection, schedule: Q04DX003 (ip), vehicle: saline with Tween-80
[9] = dose: 100.0 mg/kg/injection, schedule: Q01DX009 (ip), vehicle: saline
[10] = dose: 100.0 mg/kg/injection, schedule: Q04DX003 (ip), vehicle: Klucel (hydroxypropylcellulose) (HPC)
[11] = dose: 200.0 mg/kg/injection, schedule: Q01DX009 (ip), vehicle: saline
[12] = dose: 200.0 mg/kg/injection, schedule: Q04DX003 (ip), vehicle: Klucel (hydroxypropylcellulose) (HPC)
[13] = dose: 100.0 mg/kg/injection, schedule: Q01DX009 (ip), vehicle: saline with Tween-80
[14] = dose: 200.0 mg/kg/injection, schedule: Q01DX009 (ip), vehicle: saline with Tween-80
[15] = dose: 400.0 mg/kg/injection, schedule: Q01DX009 (ip), vehicle: saline with Tween-80
[16] = dose: 100.0 mg/kg/injection, schedule: Q01DX001 (ip), vehicle: Klucel (hydroxypropylcellulose) (HPC)
[17] = dose: 200.0 mg/kg/injection, schedule: Q01DX001 (ip), vehicle: Klucel (hydroxypropylcellulose) (HPC)
[18] = dose: 400.0 mg/kg/injection, schedule: Q01DX001 (ip), vehicle: Klucel (hydroxypropylcellulose) (HPC)
[19] = dose: 100.0 mg/kg/injection, schedule: Q01DX001 (ip), vehicle: saline

Measured: T/C

O=CCC1C=CCC1 (configuration not stated)
inactive: [1] 101 % of control | dose: 150.0 mg/kg/injection, schedule: Q01DX001 (ip), vehicle: carboxymethylcellulose (CMC) 103 % of control

C/C=C(\C)c1cc(=O)c2c(C)cc3c(c2o1)C(=O)c1c(O)c(C2CC(C)(N(C)C)C(O)C(C)O2)cc(C2CC(N(C)C)C(O)C(C)O2)c1C3=O (configuration not stated)
inactive: [2] 120 % of control | [3] 114 % of control

O=C(Nc1ccc(C2=NCCN2)cc1)c1cc(Cl)c(C(=O)Nc2ccc(C3=NCCN3)cc2)cc1Cl
inactive: dose: 13.4 mg/kg/injection, schedule: Q01DX Z (ip), vehicle: carboxymethylcellulose (CMC) 104 % of control | dose: 20.0 mg/kg/injection, schedule: Q01DX Z (ip), vehicle: carboxymethylcellulose (CMC) 123 % of control | dose: 45.0 mg/kg/injection, schedule: Q01DX Z (ip), vehicle: carboxymethylcellulose (CMC) 88 % of control

Clc1ccc(/C(=N\OC(c2ccccc2)c2ccccc2)c2ccccc2)cc1
inactive: [4] 86 % of control | [5] 87 % of control

CC(=O)N(CC(=O)O)c1ccccc1
inactive: [6] 101 % of control | [7] 103 % of control | [8] 98 % of control

O=S(=O)(O)c1ccc(O)cc1
inactive: dose: 50.0 mg/kg/injection, schedule: Q04DX003 (ip), vehicle: Klucel (hydroxypropylcellulose) (HPC) 98 % of control | [9] 110 % of control | [10] 104 % of control | dose: 100.0 mg/kg/injection, schedule: Q04DX003 (ip), vehicle: saline 114 % of control | [11] 107 % of control | [12] 124 % of control | dose: 200.0 mg/kg/injection, schedule: Q04DX003 (ip), vehicle: saline 97 % of control | dose: 400.0 mg/kg/injection, schedule: Q01DX009 (ip), vehicle: saline 101 % of control | dose: 400.0 mg/kg/injection, schedule: Q04DX003 (ip), vehicle: saline 101 % of control

CN(c1ccccc1)S(=O)(=O)c1ccc(NC(=O)CBr)cc1
inactive: dose: 37.5 mg/kg/injection, schedule: Q01DX001 (ip), vehicle: Klucel (hydroxypropylcellulose) (HPC) 86 % of control | dose: 75.0 mg/kg/injection, schedule: Q01DX001 (ip), vehicle: Klucel (hydroxypropylcellulose) (HPC) 93 % of control

NS(=O)(=O)c1ccc(NC(=O)Nc2cccc3ccccc23)cc1
inactive: [2] 91 % of control | [13] 101 % of control and 108 % of control | dose: 100.0 mg/kg/injection, schedule: Q04DX002 (ip), vehicle: saline with Tween-80 95 % of control and 100 % of control | [6] 105 % of control | [3] 87 % of control | [14] 93 % of control and 100 % of control | dose: 200.0 mg/kg/injection, schedule: Q04DX002 (ip), vehicle: saline with Tween-80 98 % of control and 100 % of control | [7] 103 % of control | dose: 400.0 mg/kg/injection, schedule: Q01DX001 (ip), vehicle: saline with Tween-80 94 % of control | [15] 96 % of control and 105 % of control | dose: 400.0 mg/kg/injection, schedule: Q04DX002 (ip), vehicle: saline with Tween-80 93 % of control and 96 % of control | [8] 108 % of control

CCOC(=O)C1C2OC(=O)C(C(=O)C2P2(=O)OCCN2CCCl)C1c1ccc(OC(C)=O)cc1 (configuration not stated)
inactive: [10] 108 % of control | [12] 95 % of control | dose: 400.0 mg/kg/injection, schedule: Q04DX003 (ip), vehicle: Klucel (hydroxypropylcellulose) (HPC) 108 % of control

CC(C)(C)OC(=O)N/N=C/c1ccc([N+](=O)[O-])s1
inactive: [6] 94 % of control | [7] 98 % of control | [8] 89 % of control

CS(=O)(=O)OCC(=O)O
inactive: [16] 93 % of control | [17] 97 % of control

O=C1OCc2cccc3cccc1c23
inactive: [6] 115 % of control | [7] 104 % of control

COc1ccc(-n2c(=O)c(N=Nc3ccccc3Cl)c(O)n(-c3ccccc3C)c2=S)cc1
inactive: [16] 97 % of control | [17] 93 % of control | [18] 104 % of control

CC(C)=CCSc1ncnc2nc[nH]c12
inactive: dose: 31.0 mg/kg/injection, schedule: Q01DX Z (ip), vehicle: other 91 % of control | dose: 62.0 mg/kg/injection, schedule: Q01DX Z (ip), vehicle: other 117 % of control | dose: 125.0 mg/kg/injection, schedule: Q01DX Z (ip), vehicle: other 103 % of control | dose: 250.0 mg/kg/injection, schedule: Q01DX Z (ip), vehicle: other 109 % of control

CC(=O)CC(=O)CCc1ccccc1.CC(=O)CC(=O)CCc1ccccc1.[Cu]
inactive: [1] 91 % of control

O=C1OC(=O)c2cscc21
inactive: [6] 88 % of control | [7] 94 % of control

COc1cc(S(=O)(=O)F)ccc1NC(=O)/C=C/c1ccc([N+](=O)[O-])cc1
inactive: [19] 103 % of control | [4] 94 % of control | [5] 100 % of control

O=C(Cl)OC12CC3CC(CC(C3)C1)C2
inactive: [16] 95 % of control | dose: 100.0 mg/kg/injection, schedule: Q01DX009 (ip), vehicle: other 105 % of control | [17] 97 % of control | dose: 200.0 mg/kg/injection, schedule: Q01DX009 (ip), vehicle: other 105 % of control | [18] 100 % of control | dose: 400.0 mg/kg/injection, schedule: Q01DX009 (ip), vehicle: other 105 % of control

Cc1ccc(S(=O)(=O)NC(=S)Nc2ccccc2)cc1
inactive: dose: 50.0 mg/kg/injection, schedule: Q01DX001 (ip), vehicle: saline 98 % of control | dose: 50.0 mg/kg/injection, schedule: Q01DX009 (ip), vehicle: saline 102 % of control | [19] 101 % of control | [9] 95 % of control | [4] 101 % of control | [11] 109 % of control

Cc1cc(Br)c2ccccc2c1N(CC(=O)O)S(=O)(=O)c1ccccc1
inactive: dose: 100.0 mg/kg/injection, schedule: Q01DX001 (ip), vehicle: saline sonified 97 % of control | [13] 91 % of control | dose: 200.0 mg/kg/injection, schedule: Q01DX001 (ip), vehicle: saline sonified 100 % of control | [14] 91 % of control | dose: 400.0 mg/kg/injection, schedule: Q01DX001 (ip), vehicle: saline sonified 97 % of control | [15] 97 % of control

NC(CSc1ccc([N+](=O)[O-])cc1Cl)C(=O)O (configuration not stated)
inactive: dose: 75.0 mg/kg/injection, schedule: Q01DX001 (ip), vehicle: saline 100 % of control | dose: 150.0 mg/kg/injection, schedule: Q01DX001 (ip), vehicle: saline 90 % of control | dose: 300.0 mg/kg/injection, schedule: Q01DX001 (ip), vehicle: saline 92 % of control

CC1(C)CC(NC(=O)NCCCl)CC(C)(C)N1
inactive: dose: 12.5 mg/kg/injection, schedule: Q01DX009 (ip), vehicle: saline 98 % of control | dose: 12.5 mg/kg/injection, schedule: Q04DX003 (ip), vehicle: saline 101 % of control | dose: 25.0 mg/kg/injection, schedule: Q01DX009 (ip), vehicle: saline 95 % of control | dose: 25.0 mg/kg/injection, schedule: Q04DX003 (ip), vehicle: saline 114 % of control | dose: 50.0 mg/kg/injection, schedule: Q04DX003 (ip), vehicle: saline 104 % of control

CC(C)(C)C(=O)Nc1ccc(NS(=O)(=O)c2ccccc2)cc1
inactive: [6] 102 % of control | [7] 89 % of control | [8] 88 % of control
